# Assay results published in article PMC4428054, “A method for human teratogen detection by geometrically confined cell differentiation and migration” (Scientific Reports, 2015).
# “Also recorded” adds a separate entry of the source. Like-named read-outs stand apart in the source and are kept apart here.
# What was measured:
# [1] = test system: micropatterned human pluripotent stem cell (μP-hPSC) colonies; test: μP-hPSC model-based quantitative morphometric assay (disruption of annular mesoendoderm pattern); format: cell-based; conditions: for DC value compared with known Cmax: DC in μP-hPSC model vs Cmax in human plasma; for Does DC < IC25H9?: comparison of DC with IC25 to H9 cells; for Morphologic cluster readouts across four test groups (one-way ANOVA, post-hoc): control, low, medium, high concentrations, day 3; for DC (disruption concentration): lowest concentration which morphologically disrupts the mesoendoderm pattern vs non-treated control, 3-day mesoendoderm induction; for Teratogenicity classification in the μP-hPSC model: teratogenic if DC < IC25,H9
# Description: (§1) The dose-dependent effect of each compound on the mesoendoderm pattern formation was determined by dosing at four test conditions: zero, low, medium and high drug concentrations (Fig. 3i). The cytotoxicity of each compound was evaluated in order to find the appropriate range of testing concentrations. […] The results would represent specific cytotoxicity to embryonic and adult cells respectively. Based on the cytotoxicity data, three drug concentrations (designated as low, medium and high) were selected such that the lowest concentration tested was not toxic to both H9 cells and aHDFs, and the highest concentration should not be cytotoxic to aHDFs. The tested concentration was considered as not cytotoxic if it was less than the drug’s 25% inhibitory concentration (IC25) to the tested cell line[25].
# A series of imaging processing and statistical analysis were developed to quantitatively measure the teratogenic effects of each drug (Fig. 3). After three days of culture in the mesoendoderm induction medium, immunofluorescence images of T were acquired (Fig. 3ii). We employed similar image quantification algorithms previously used for analyzing collagen deposition patterns in fibrotic tissues[26] to extract 19 morphological attributes that describe the annular mesoendoderm pattern (Fig. 3iii). […] A dose response plot was then generated for each morphologic cluster (Fig. 3iv). One-way analysis of variance (ANOVA) was performed to determine whether there were significant morphologic differences among test groups for each drug (Fig. 3v).
# This concentration was defined as the disruption concentration (DC). If DC < IC25,H9, we can infer that the drug is teratogenic, where it affects embryonic development without being cytotoxic to embryonic cells.
# The readouts of each morphologic cluster across the four test groups (i.e. control, low, medium, high) were plotted for each drug and one-way ANOVA was performed to determine whether there were significant differences across the test groups (Supplementary Fig. S7–S11).
# The autoclaved PDMS stencil was first sealed onto a 60 mm petri dish (Nunc) using 200 μl of 70% ethanol. After drying in the cell culture hood, 450 μl Matrigel^TM in DMEM/F12 (11330032, GIBCO) was then added into each stencil and incubated for 5 hr at 37 °C before use. To obtain single cell suspension, the hPSC culture was treated with Accutase (SCR005, Merck Millipore) for about 10 min, and the cells were resuspended in mTeSR1 medium supplemented with 10 μM Y27632 (688000, Calbiochem, Merck Millipore). The cells were seeded onto the PDMS stencils at 100% confluence density of 4444 cells/mm^2 and allowed to attach for 1 hr. The stencil was then removed and the unpatterned substrate was passivated by backfilling with 0.5% Pluronic F-127 (P2443–1KG, Sigma-Aldrich) in DMEM/F12. After 10 min incubation, the μP-hPSC colonies were washed 3 times with DMEM/F12 and incubated at least for 3 hr in mTeSR^TM1 medium supplemented with 10 μM Y27632 before changed to mTeSR^TM1 medium alone. Differentiation was initiated 24 hr post seeding and lasted for 3 days before collecting the samples. For phase contrast live imaging, images were acquired every 20 min by BioStation CT (Nikon) using 10X objective. The imaging period started since the induction of differentiation and lasted for 3 days.
# Morphological feature extraction from T fluorescence images was done in MATLAB Image Processing Toolbox (Mathworks). First, the outline of the μP-hPSC colony was identified by intensity difference compared with background and its centroid position was determined.
# [2] = test system: H9 human embryonic stem cells; test: Cytotoxicity assay (MTS) in H9 cells; format: cell-based; conditions: for IC25H9: 25% inhibitory concentration, H9 cells, 3 days, MTS viability; for Cytotoxicity of tested concentration to hPSCs: Thalidomide 800 μM, Penicillin G 200 μg/ml
# Description: as §1
# (§2) The cytotoxicity test was done in 96-well tissue culture plates with 100 μl of medium with or without the drug. For each drug, 8 concentrations with 5-fold dilution were tested together with the vehicle controls. For H9 cells, the plates were coated with Matrigel^TM before cell seeding. 10,000 hES cells or 1,000 aHDF cells were plated into each well and cultured for 3 days in the test solution with half change of the medium with or without the drug every day. On day 3, cell viability was measured using CellTiter 96® AQueous One Solution Cell Proliferation Assay (MTS, G3580, Promega). […] IC25 values were acquired from either logistic regression using OriginPro 9 or direct reading from the cytotoxicity curve.
# [3] = parameters: method as in earlier work; conditions: ref 30-34 (Table 1), Supplementary refs 1-5, cited from earlier work
# [4] = test system: mouse embryonic stem cells (mESCs); conditions: disruption of beating cardiomyocyte formation from mESCs; cited from earlier work
# μP-hPSC colonies = test: Quantitative RT-PCR of germ layer markers in drug-treated μP-hPSC colonies; format: cell-based, human; conditions: day 3; for Expression levels of MIXL1, GSC, NKX2.5, FOXA2, PAX6 and NESTIN / Expression level of mesoendoderm marker T compared to untreated control colonies / SOX17 expression level compared with untreated control colonies: Thalidomide 800 μM, Penicillin G 200 μg/ml; for Expression levels of MIXL1, GSC, NKX2.5, FOXA2, PAX6 and NESTIN: untreated control
# From the text: Therefore, we reasoned that measuring changes in the mesoendoderm pattern, which is an assimilation of multiple cellular processes, as an assay readout for teratogenic potential, is sufficiently sensitive and may show better specificity as compared to the expression levels of a panel of molecular biomarkers for differentiation.
# Total RNA was extracted from the samples on day 3 of the differentiation using the RNeasy® Plus Micro Kit (74034, QIAGEN) according to manufacturer’s protocol. Then cDNA was synthesized from the extracted RNA using High Capacity RNA-to-cDNA Kit (4387406, Applied Biosystems, Life Technologies). To analyze the gene expression levels of each sample, quantitative RT-PCR was performed using FastStart Universal SYBR Green Master (ROX) (04913914001, Roche) on the ABI 7500 Fast Real-Time PCR system (Applied Biosystems, Life Technologies) according to the manufacturer’s standard protocol. The relative quantitative expressions values of target genes were normalized to GAPDH and expressed relative to the levels of undifferentiated hPSCs using the ΔΔCT method. All primers used were commercially validated primers from GeneCopoeia^TM except for MIXL1, GSC, E-cadherin, N-cadherin, VIM, TWIST and SNAIL. The primer sequences/Catalogue numbers can be found in Supplementary Information (Supplementary Table S3).
# [5] = test system: adult human dermal fibroblasts (aHDFs); test: Cytotoxicity assay (MTS) in adult human dermal fibroblasts; format: cell-based; conditions: Thalidomide 800 μM; Penicillin G 200 μg/ml
# Description: as §1
# as §2, with “10,000 hES cells or 1,000 aHDF cells were plated into each well and cultured for 3 days in the test solution with half change of the medium with or without the drug every day.” left out
# [6] = human plasma, therapeutic dosing, cited from earlier work
SMILES,DC value compared with known Cmax [1],Does DC < IC25H9? [1],"Morphologic cluster readouts across four test groups (one-way ANOVA, post-hoc) [1]",DC (disruption concentration) [1],Teratogenicity classification in the μP-hPSC model [1],IC25H9 [2],In vivo human data (teratogenicity) [3],In mEST (teratogenicity classification) [4],Cytotoxicity of tested concentration to hPSCs [2],"Expression levels of MIXL1, GSC, NKX2.5, FOXA2, PAX6 and NESTIN (μP-hPSC colonies)",Expression level of mesoendoderm marker T compared to untreated control colonies (μP-hPSC colonies),SOX17 expression level compared with untreated control colonies (μP-hPSC colonies),Cytotoxicity of tested concentration to human adult fibroblasts [5],also measured
CC(C)(S)[C@@H](N)C(=O)O [D-penicillamine],lower than or equal to,Yes,significant dose-dependent morphologic disruptions of the mesoendoderm pattern,200 µg/mL,Teratogenic,278 mg/L,Teratogenic[32],non-terotogenic; also recorded: Non-teratogenic,,,,,,In vivo human data (teratogenicity) ([3]; listed as D-Penicillamine): Teratogenic
CC1(C)S[C@@H]2[C@H](NC(=O)Cc3ccccc3)C(=O)N2[C@H]1C(=O)O [Penicillin G],much higher,much higher and No,no significant differences among test groups in almost all morphologic clusters except CL6,,Non-teratogenic,787 mg/L,,,non-cytotoxic,no significant differences,higher expression level,no significant difference,non-cytotoxic,"Mesoendoderm pattern position (CL6) in high concentration test group ([1]; 1,000 μg/ml vs zero dose control, post-hoc p = 0.001): significant inward mesoenoderm pattern position toward the colony centre"
"CC1=C(/C=C/C(C)=C/C=C/C(C)=C/C(=O)O)C(C)(C)CCC1 [RA, Retinoic acid]",lower than or equal to,Yes,significant dose-dependent morphologic disruptions of the mesoendoderm pattern,0.00036 µg/mL,Teratogenic,>2 mg/L,Teratogenic[31],Teratogenic,,,,,,In vivo human data (teratogenicity) ([3]; listed as Retinoic acid): Teratogenic; Cmax ([6]; ref Muindi et al. (1992)): 0.347 µg/mL
O=C1CCC(N2C(=O)c3ccccc3C2=O)C(=O)N1 (centres unmarked) [Thalidomide],,Yes,significant dose-dependent morphologic disruptions of the mesoendoderm pattern,30 µM,Teratogenic,>1000 µM,Teratogenic[30],cannot be detected,non-cytotoxic,no significant differences,higher expression level,no significant difference,non-cytotoxic,"Collective cell migration trajectory (live imaging and kymograph) ([1]; Thalidomide 800 μM, Penicillin G 200 μg/ml, 3-day live imaging, vs untreated colonies): migrated much more towards the colony center; Mesoendoderm pattern morphology (T+ cells) after 3 days ([1]; Thalidomide 800 μM, Penicillin G 200 μg/ml, vs untreated colonies): much wider mesoendoderm pattern that was displaced towards the colony center; Expression level of definitive endoderm marker SOX17 compared with Penicillin G-treated colonies (μP-hPSC colonies; Thalidomide 800 μM vs Penicillin G 200 μg/ml): significantly lower; Cmax ([6]; ref Teo et al. (2004), read-out: Cmax): 10.9 µM"
"CCCC(CCC)C(=O)O [VPA, Valproic acid]",lower than or equal to,Yes,significant dose-dependent morphologic disruptions of the mesoendoderm pattern,100 µM,,130 µM,Teratogenic,,,,,,,"Cmax ([6]; ref Reed et al. (2006), read-out: Cmax): 574 µM"
